# Measurements taken from patent publication US10759767B2 (priority 2012, dated 2020).
# Like-named read-outs stand apart in the source and are kept apart here.
# Legend:
# [1] = system: Alternaria solani; assay: Microtest: activity against early blight caused by Alternaria solani (Alteso); assay type: cell-based; settings: for inhibition of growth at 6.3e-05 ppm: solo 0.000063 ppm
# [2] = system: Leptosphaeria nodorum; assay: Microtest: activity against wheat leaf spots caused by Leptosphaeria nodorum (Leptno); assay type: cell-based
# [3] = system: Pyricularia oryzae; assay: microbe, parasite or virus in culture; assay type: cell-based; settings: for Observed efficacy: solo product
# [4] = system: Botrytis cinerea; assay: Microtest: activity against the grey mold Botrytis cinerea (Botrci); assay type: cell-based; settings: for inhibition of growth at 6.3e-05 ppm: solo 0.000063 ppm
# [5] = system: Phytophthora infestans; assay: microbe, parasite or virus in culture; assay type: cell-based; settings: for Observed efficacy: solo product
# [6] = system: Septoria tritici; assay: Microtest: activity against leaf blotch on wheat caused by Septoria tritici (Septtr); assay type: cell-based; settings: solo product
# [7] = Pyricularia oryzae, 168 h, read-out: Observed efficacy
# [8] = Alternaria solani, 168 h, read-out: Observed efficacy
# [9] = Botrytis cinerea, 168 h, read-out: Observed efficacy
# [10] = Botrytis cinerea, 168 h, solo 0.063 ppm, read-out: Observed efficacy
# [11] = Phytophthora infestans, 168 h, read-out: Observed efficacy
# [12] = Zymoseptoria tritici, 168 h, second Septtr microtest, 0.000016 ppm, read-out: Observed efficacy
# [13] = second Septtr microtest, 0.016 ppm
# [14] = second Septtr microtest, 16 ppm
# [15] = second Septtr microtest, 63 ppm
compound,measurement,setting,value
"O=C(Nc1ccccc1-c1ccc(Cl)cc1)c1cccnc1Cl [II-7, boscalid, reference compound]",Observed efficacy,[1]; solo 0.001 ppm,5
same,Observed efficacy,[1]; solo 0.004 ppm,6
same,Observed efficacy,[2]; solo 4 ppm,23
"CC(O)(Cn1cncn1)c1ccc(Oc2ccc(Cl)cc2)cc1C(F)(F)F (stereo not shown) [I-3, 2-[4-(4-chlorophenoxy)-2-(trifluoromethyl)phenyl]-1-(1,2,4-triazol-1-yl)propan-2-ol]",inhibition of growth at 0.004 ppm,[3]; [7],0%
same,inhibition of growth at 1 ppm,[3]; [7],37%
same,inhibition of growth at 4e-06 ppm,"[1]; Alternaria solani, 168 h, solo 0.000004 ppm, read-out: Observed efficacy",5%
same,inhibition of growth at 6.3e-05 ppm,[1]; [8],8%
same,Observed efficacy,"[1]; solo product, 0.000016 ppm",0%
same,inhibition of growth at 4e-06 ppm,"[4]; Botrytis cinerea, 168 h, solo 0.000004 ppm, read-out: Observed efficacy",0%
same,inhibition of growth at 1.6e-05 ppm,"[4]; Botrytis cinerea, 168 h, solo 0.000016 ppm, read-out: Observed efficacy",5%
same,inhibition of growth at 6.3e-05 ppm,[4]; [9],0%
same,inhibition of growth at […],[4]; [10],23%
same,inhibition of growth at 4 ppm,[5]; [11],4%
same,inhibition of growth at 16 ppm,[5]; [11],4%
same,inhibition of growth at 2.5e-07 ppm,"[6]; Zymoseptoria tritici, 168 h, second Septtr microtest, 0.00000025 ppm, read-out: Observed efficacy",8%
same,inhibition of growth at 1e-06 ppm,"[6]; Zymoseptoria tritici, 168 h, second Septtr microtest, 0.000001 ppm, read-out: Observed efficacy",5%
same,inhibition of growth at 4e-06 ppm,"[6]; Zymoseptoria tritici, 168 h, second Septtr microtest, 0.000004 ppm, read-out: Observed efficacy",14%
same,inhibition of growth at 1.6e-05 ppm,[6]; [12],16%
same,Observed efficacy,[6]; 0.000016 ppm,16
same,Observed efficacy,[6]; 0.004 ppm,54
same,inhibition of growth at 6.3e-05 ppm,"[2]; Parastagonospora nodorum, 168 h, solo product, 0.000063 ppm, read-out: Observed efficacy",26%
CC1(C)CC/C(=C\c2ccc(Cl)cc2)C1(O)Cn1cncn1 (stereo not shown) [Triticonazol],Observed efficacy,[3]; 1 ppm,1%
same,Observed efficacy,[3]; 4 ppm,59%
same,Observed efficacy,[5]; 16 ppm,0%
CC#CC(O)(Cn1cncn1)c1ccc(Oc2ccc(Cl)cc2)cc1C(F)(F)F (stereo not shown),melting point,,137 °C
"CC(C)C1C2CCC1c1c(NC(=O)c3cn(C)nc3C(F)F)cccc12 (stereo not shown) [II-50, isopyrazam, reference compound]",Observed efficacy,[1]; solo 0.016 ppm,15
same,Observed efficacy,[4]; solo 0.016 ppm,6
CC1COC(Cn2cncn2)(c2ccc(Oc3ccc(Cl)cc3)cc2Cl)O1 (stereo not shown) [Difenoconazol],Observed efficacy,[1]; solo 0.004 ppm,5
same,Observed efficacy,[1]; solo 0.016 ppm,5
same,Observed efficacy,[5]; 4 ppm,30
same,Observed efficacy,[6]; [13],26%
same,Observed efficacy,[2]; solo 0.016 ppm,29
"Cc1ccc(-c2c(Cl)nc(C#N)n2S(=O)(=O)N(C)C)cc1 [II-12, cyazofamid, reference compound]",Observed efficacy,[1]; solo 4 ppm,14
same,Observed efficacy,[1]; solo 16 ppm,35
same,Observed efficacy,[6]; [14],40%
OC(Cn1cncn1)(c1ccc(Oc2ccc(Cl)cc2)cc1Cl)C1CC1 (stereo not shown),melting point,,110 °C
CN1COCN(Cc2cnc(Cl)s2)/C1=N\[N+](=O)[O-] [Thiamethoxam],Observed efficacy,[1]; solo 1 ppm,10
same,Observed efficacy,[1]; solo 4 ppm,51
same,Observed efficacy,"[6]; second Septtr microtest, 1 ppm",57%
same,Observed efficacy,[2]; solo 1 ppm,22
same,Observed efficacy,[2]; solo 4 ppm,51
"Cc1ccc(C(C)NC(=O)[C@@H](NC(=O)OC(C)C)C(C)C)cc1 (stereo partly shown) [II-51, iprovalicarb, reference compound]",Observed efficacy,[1]; solo 4 ppm,1
same,Observed efficacy,[1]; solo 16 ppm,2
same,Observed efficacy,[1]; solo 63 ppm,1
same,Observed efficacy,[4]; solo 4 ppm,2
same,Observed efficacy,[4]; solo 16 ppm,3
same,Observed efficacy,[4]; solo 63 ppm,6
same,Observed efficacy,[2]; solo 16 ppm,19
"CO/C=C(/C(=O)OC)c1ccccc1Oc1cc(Oc2ccccc2C#N)ncn1 [II-3, azoxystrobin, reference compound]",Observed efficacy,[1]; solo 0.004 ppm,6
same,Observed efficacy,[1]; solo 0.016 ppm,14
same,Observed efficacy,[4]; solo 4 ppm,14
same,Observed efficacy,[4]; solo 16 ppm,23
OC(Cc1ccccc1Cl)(Cn1nc[nH]c1=S)C1(Cl)CC1 (stereo not shown) [Prothioconazol],Observed efficacy,[1]; solo 1 ppm,66
same,Observed efficacy,[4]; solo 1 ppm,36
same,Observed efficacy,[4]; solo 4 ppm,72
same,Observed efficacy,[6]; [13],17%
same,Observed efficacy,[2]; solo 1 ppm,43
"N#Cc1c(Cl)c(Cl)c(Cl)c(C#N)c1Cl [II-11, chlorothalonil, reference compound]",Observed efficacy,[2]; solo 1 ppm,28
"COC(=O)Nc1nc2ccccc2[nH]1 [II-8, carbendazim, reference compound]",Observed efficacy,[1]; solo 4 ppm,7
same,Observed efficacy,[1]; solo 16 ppm,10
same,Observed efficacy,[1]; solo 63 ppm,34
same,inhibition of growth at 4 ppm,[5]; [11],24%
same,Observed efficacy,[6]; [14],16%
"CCCCCCCCc1c(CC)nc2ncnn2c1N [II-1, ametoctradin, reference compound]",Observed efficacy,[1]; solo 4 ppm,5
same,Observed efficacy,[1]; solo 16 ppm,2
same,Observed efficacy,[1]; solo 63 ppm,6
same,Observed efficacy,[4]; solo 16 ppm,3
same,Observed efficacy,[4]; solo 63 ppm,4
CC(C)(C)C(O)(CCc1ccc(Cl)cc1)Cn1cncn1 (stereo not shown) [Tebuconazol],Observed efficacy,[1]; solo 0.016 ppm,8
same,Observed efficacy,[4]; solo 0.016 ppm,9
same,Observed efficacy,[5]; 1 ppm,25
"CO/N=C(/C1=NOCCO1)c1ccccc1Oc1ncnc(Oc2ccccc2Cl)c1F [II-37, fluoxastrobin, reference compound]",Observed efficacy,[1]; solo 0.016 ppm,11
"Cn1cc(C(=O)Nc2ccc(F)cc2-c2ccc(Cl)c(Cl)c2)c(C(F)F)n1 [II-6, bixafen, reference compound]",Observed efficacy,[1]; solo 0.001 ppm,5
same,Observed efficacy,[1]; solo 0.004 ppm,38
same,Observed efficacy,[4]; solo 0.016 ppm,8
same,Observed efficacy,[5]; 1 ppm,25
CC1(C)CCC(Cc2ccc(Cl)cc2)C1(O)Cn1cncn1 (stereo not shown) [Metconazol],Observed efficacy,[1]; solo 0.016 ppm,17
same,Observed efficacy,[6]; [13],24%
"COC(=O)N(OC)c1ccccc1COc1ccn(-c2ccc(Cl)cc2)n1 [II-66, pyraclostrobin, reference compound]",inhibition of growth at 0.001 ppm,[3]; [7],5%
same,inhibition of growth at 0.016 ppm,"[1]; Alternaria solani, 168 h, solo 0.016 ppm, read-out: Observed efficacy",18%
same,Observed efficacy,[1]; solo 0.004 ppm,8
same,Observed efficacy,"[6]; second Septtr microtest, 0.004 ppm",37%
same,Observed efficacy,[6]; 0.001 ppm,12
same,Observed efficacy,[6]; 0.004 ppm,37
same,inhibition of growth at 0.016 ppm,"[2]; Parastagonospora nodorum, 168 h, solo 0.016 ppm, read-out: Observed efficacy",24%
"OC(Cn1cncn1)(c1ccc(Oc2ccc(Cl)cc2)cc1C(F)(F)F)C1CC1 (stereo not shown) [I-4, 1-[4-(4-chlorophenoxy)-2-(trifluoromethyl)phenyl]-1-cyclopropyl-2-(1,2,4-triazol-1-yl)ethanol]",inhibition of growth at 1 ppm,[3]; [7],47%
same,inhibition of growth at 6.3e-05 ppm,[1]; [8],5%
same,inhibition of growth at […],"[1]; Alternaria solani, 168 h, solo 0.00025 ppm, read-out: Observed efficacy",7%
same,inhibition of growth at 0.001 ppm,"[1]; Alternaria solani, 168 h, solo 0.001 ppm, read-out: Observed efficacy",10%
same,inhibition of growth at […],"[1]; Alternaria solani, 168 h, solo 0.25 ppm, read-out: Observed efficacy",33%
same,inhibition of growth at 6.3e-05 ppm,[4]; [9],4%
same,inhibition of growth at […],"[4]; Botrytis cinerea, 168 h, solo 0.00025 ppm, read-out: Observed efficacy",2%
same,inhibition of growth at 0.001 ppm,"[4]; Botrytis cinerea, 168 h, solo 0.001 ppm, read-out: Observed efficacy",5%
same,inhibition of growth at […],[4]; [10],4%
same,inhibition of growth at […],"[4]; Botrytis cinerea, 168 h, solo 0.25 ppm, read-out: Observed efficacy",17%
same,inhibition of growth at 4 ppm,[5]; [11],3%
same,inhibition of growth at 16 ppm,[5]; [11],9%
same,inhibition of growth at 1.6e-05 ppm,[6]; [12],3%
same,inhibition of growth at 6.3e-05 ppm,"[6]; Zymoseptoria tritici, 168 h, second Septtr microtest, 0.000063 ppm, read-out: Observed efficacy",8%
same,inhibition of growth at 0.001 ppm,"[6]; Zymoseptoria tritici, 168 h, 0.001 ppm, read-out: Observed efficacy",0%
same,Observed efficacy,"[6]; second Septtr microtest, 0.001 ppm",0%
same,Observed efficacy,[6]; 0.016 ppm,18
same,inhibition of growth at 0.001 ppm,"[2]; Parastagonospora nodorum, 168 h, solo 0.001 ppm, read-out: Observed efficacy",15%
CCN(Cc1ccc(Cl)nc1)/C(=C/[N+](=O)[O-])NC [Nitenpyram],Observed efficacy,[1]; solo 4 ppm,2
same,Observed efficacy,[1]; solo 16 ppm,2
same,Observed efficacy,[1]; solo 63 ppm,8
same,Observed efficacy,[6]; [15],10%
same,Observed efficacy,[2]; solo 63 ppm,23
CCC(=O)C1=C([O-])CC(C(=O)[O-])CC1=O.[Ca+2] (stereo not shown) [Prohexadion-Ca],Observed efficacy,[1]; solo 4 ppm,6
same,Observed efficacy,[1]; solo 16 ppm,2
same,Observed efficacy,[1]; solo 63 ppm,2
same,Observed efficacy,[4]; solo 4 ppm,10
same,Observed efficacy,[4]; solo 16 ppm,5
same,Observed efficacy,[4]; solo 63 ppm,4
same,Observed efficacy,[6]; [15],15%
same,Observed efficacy,[2]; solo 63 ppm,23
"CON=C(C(=O)OC)c1ccccc1CON=C(C)c1cccc(C(F)(F)F)c1 [II-92, trifloxystrobin, reference compound]",Observed efficacy,[1]; solo 0.004 ppm,7
same,Observed efficacy,[1]; solo 0.016 ppm,11
same,inhibition of growth at 1 ppm,[5]; [11],37%
"Cn1cc(C(=O)Nc2ccccc2-c2cc(F)c(F)c(F)c2)c(C(F)F)n1 [II-42, fluxapyroxad, reference compound]",Observed efficacy,[1]; solo 0.001 ppm,4
same,Observed efficacy,"[1]; solo product, 0.001 ppm",4%
"N#Cc1c[nH]cc1-c1cccc2c1OC(F)(F)O2 [II-34, fludioxonil, reference compound]",Observed efficacy,"[1]; solo product, 0.016 ppm",13%
same,Observed efficacy,[5]; 1 ppm,0%
"N#Cc1nn(-c2c(Cl)cc(C(F)(F)F)cc2Cl)c(N)c1[S+]([O-])C(F)(F)F (stereo not shown) [II-20c, fipronil, reference compound]",Observed efficacy,[1]; solo 1 ppm,6
same,Observed efficacy,[1]; solo 4 ppm,2
Fc1ccc([C@]2(Cn3cncn3)O[C@H]2c2ccccc2Cl)cc1 [Epoxiconazol],Observed efficacy,[1]; solo 0.004 ppm,5
same,Observed efficacy,[1]; solo 0.016 ppm,8
same,Observed efficacy,[4]; solo 0.016 ppm,11
same,Observed efficacy,[5]; 4 ppm,27
same,Observed efficacy,[6]; [13],16%
C[N+]1(C)CCCCC1.[Cl-] [Mepiquat-cl],Observed efficacy,[1]; solo 16 ppm,10
same,Observed efficacy,[1]; solo 63 ppm,16
same,Observed efficacy,[4]; solo 16 ppm,11
same,Observed efficacy,[6]; [15],16%
same,Observed efficacy,[2]; solo 63 ppm,28
"CCOC(=O)C1CC(=O)C(=C(O)C2CC2)C(=O)C1 (stereo not shown) [II-3a, trinexapac-ethyl, reference compound]",Observed efficacy,[1]; solo 4 ppm,12
same,Observed efficacy,[1]; solo 16 ppm,27
same,Observed efficacy,"[6]; second Septtr microtest, 4 ppm",13%
same,inhibition of growth at 63 ppm,"[2]; Parastagonospora nodorum, 168 h, solo 63 ppm, read-out: Observed efficacy",17%
O=c1c2cc(F)ccc2nc(-n2cncn2)n1-c1ccc(Cl)cc1Cl [Fluquinconazol],Observed efficacy,[3]; 1 ppm,1%
same,Observed efficacy,[5]; 4 ppm,0%
same,Observed efficacy,[6]; 0.004 ppm,0%
